Measured values taken from PubChem BioAssay (NCI).
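1) Cells in 96-well plates. 2) Compound, 48 h, 5 concentrations. 3) Linear interpolation between surrounding doses. 4) Unreached endpoint = highest concentration. Abbreviation: GI50, concentration required for 50% inhibition of growth. TGI: concentration producing complete growth inhibition.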

Tests used:
Experiment in all cases: NCI-60 cell line screen, 48 h
786-0 renal = tested on: 786-0 renal
IGROV1 ovarian = tested on: IGROV1 ovarian
MCF7 breast = tested on: MCF7 breast
MDA-MB-231 breast = tested on: MDA-MB-231 breast
OVCAR-4 ovarian = tested on: OVCAR-4 ovarian
OVCAR-8 ovarian = tested on: OVCAR-8 ovarian
SK-OV-3 ovarian = tested on: SK-OV-3 ovarian
SNB-75 CNS = tested on: SNB-75 CNS
U251 CNS = tested on: U251 CNS
ACHN renal = tested on: ACHN renal

## COc1ccc2c(=O)c3ccoc3n(CC=C(C)C)c2c1
786-0 renal
  TGI: > 100 µM
IGROV1 ovarian
  TGI: > 100 µM
MCF7 breast
  TGI: > 100 µM
MDA-MB-231 breast
  TGI: > 100 µM
OVCAR-4 ovarian
  TGI: > 100 µM
OVCAR-8 ovarian
  TGI: > 100 µM
SK-OV-3 ovarian
  TGI: > 100 µM
SNB-75 CNS
  TGI: > 100 µM
U251 CNS
  TGI: > 100 µM

## O=C(CC1(O)C(=O)Nc2c(Cl)ccc(Cl)c21)c1ccc2ccccc2c1 (stereo not drawn)
786-0 renal
  TGI: 22.4 µM
ACHN renal
  TGI: 26.3 µM
IGROV1 ovarian
  TGI: 41.4 µM
OVCAR-4 ovarian
  TGI: 5.92 µM
OVCAR-8 ovarian
  TGI: 38.3 µM
SK-OV-3 ovarian
  TGI: 33.5 µM
SNB-75 CNS
  TGI: 54 µM
U251 CNS
  TGI: 61.3 µM

## Cc1ccc(-n2c3c(c4c(CN(C)C)c(O)ccc42)CCc2ccccc2C3=O)cc1
786-0 renal
  GI50: 16.9 µM
  TGI: 33.3 µM
ACHN renal
  GI50: 16.3 µM
  TGI: 36 µM
IGROV1 ovarian
  GI50: 10.8 µM
  TGI: 25.8 µM
MCF7 breast
  GI50: 19 µM
  TGI: 38.8 µM
MDA-MB-231 breast
  GI50: 14.9 µM
  TGI: 31 µM
OVCAR-8 ovarian
  GI50: 16.9 µM
  TGI: 41.8 µM
SK-OV-3 ovarian
  GI50: > 100 µM
  TGI: > 100 µM
U251 CNS
  GI50: 15.6 µM
  TGI: 30.5 µM

## O=C(Nc1cccc(Cl)c1)c1ccc(NC2=C(Cl)C(=O)N(Cc3ccccc3)C2=O)cc1
786-0 renal
  GI50: 8.61 µM
  TGI: 19.7 µM
ACHN renal
  GI50: 17.6 µM
  TGI: > 53.4 µM
IGROV1 ovarian
  GI50: 9.95 µM
  TGI: > 62.6 µM
MCF7 breast
  GI50: 3.19 µM
  TGI: 12.2 µM
MDA-MB-231 breast
  GI50: 8.08 µM
  TGI: 31.9 µM
OVCAR-4 ovarian
  GI50: 19.4 µM
  TGI: > 61.7 µM
OVCAR-8 ovarian
  GI50: 11.5 µM
  TGI: 27.3 µM
SK-OV-3 ovarian
  GI50: 43.6 µM
  TGI: > 95.5 µM
U251 CNS
  GI50: 15.5 µM
  TGI: > 48.1 µM

## O=C1CCCCCCCC/C=C\CC(c2ccco2)O1 (stereo not drawn)
786-0 renal
  GI50: 21.4 µM
  TGI: 70.3 µM
ACHN renal
  GI50: 23.9 µM
  TGI: 82.4 µM
IGROV1 ovarian
  GI50: 28.1 µM
  TGI: > 100 µM
MCF7 breast
  GI50: 4.81 µM
  TGI: > 100 µM
MDA-MB-231 breast
  GI50: 14.6 µM
  TGI: 41.9 µM
OVCAR-8 ovarian
  GI50: 33.4 µM
  TGI: > 100 µM
SK-OV-3 ovarian
  GI50: 32.7 µM
  TGI: > 100 µM
SNB-75 CNS
  GI50: 21.2 µM
  TGI: 61.8 µM
U251 CNS
  GI50: 19.5 µM
  TGI: 48.2 µM

## CC(=O)[CH-]C(=O)c1ccccc1.CC(=O)[CH-]C(=O)c1ccccc1.CC(C)CCCC(C)[C@H]1CCC2[C@@H]3CC=C4C[C@@H]([O-])CC[C@]4(C)C3CC[C@@]21C.CC[O-].[Ti+4] (stereo partly drawn)
786-0 renal
  GI50: 35.2 µM
  TGI: > 100 µM
ACHN renal
  GI50: 61 µM
  TGI: > 100 µM
IGROV1 ovarian
  GI50: > 100 µM
  TGI: > 100 µM
OVCAR-4 ovarian
  GI50: 91.6 µM
  TGI: > 100 µM
OVCAR-8 ovarian
  GI50: 46.3 µM
  TGI: > 100 µM
SK-OV-3 ovarian
  GI50: > 100 µM
  TGI: > 100 µM
SNB-75 CNS
  GI50: 28.5 µM
  TGI: > 100 µM
U251 CNS
  GI50: 48.7 µM
  TGI: > 100 µM

## Cn1c(=O)nc2n(-c3cccc(Br)c3)c3ccccc3nc-2c1=O
786-0 renal
  TGI: 16.7 µM
ACHN renal
  TGI: 13.7 µM
IGROV1 ovarian
  TGI: 23.7 µM
OVCAR-4 ovarian
  TGI: 14.6 µM
OVCAR-8 ovarian
  TGI: 25.4 µM
SK-OV-3 ovarian
  TGI: 50.5 µM
SNB-75 CNS
  TGI: 22.2 µM
U251 CNS
  TGI: 19.2 µM

## N#Cc1nc2c(S(=O)(=O)c3ccccc3)c(N)n(Cc3cccnc3)c2nc1C#N
786-0 renal
  GI50: 22.2 µM
  TGI: 79.3 µM
ACHN renal
  GI50: 80.7 µM
  TGI: > 100 µM
MCF7 breast
  GI50: 13.1 µM
  TGI: > 100 µM
MDA-MB-231 breast
  GI50: 11.8 µM
  TGI: 52.2 µM
OVCAR-4 ovarian
  GI50: > 100 µM
  TGI: > 100 µM
OVCAR-8 ovarian
  GI50: 10.9 µM
  TGI: > 100 µM
SK-OV-3 ovarian
  GI50: 18.8 µM
  TGI: 67.5 µM
SNB-75 CNS
  GI50: 3.35 µM
  TGI: 20.2 µM
U251 CNS
  GI50: 9.35 µM
  TGI: 33.6 µM

## COC(=O)/C([Se]c1c(C)cc(C)cc1C)=C(\[Se]c1c(C)cc(C)cc1C)C(=O)OC
786-0 renal
  TGI: > 100 µM
ACHN renal
  TGI: > 100 µM
IGROV1 ovarian
  TGI: > 100 µM
OVCAR-4 ovarian
  TGI: > 100 µM
OVCAR-8 ovarian
  TGI: > 100 µM
SK-OV-3 ovarian
  TGI: > 100 µM
SNB-75 CNS
  TGI: > 100 µM
U251 CNS
  TGI: > 100 µM

## Cc1ccccc1C(=O)c1ccccc1O
786-0 renal
  TGI: > 100 µM
ACHN renal
  TGI: > 100 µM
IGROV1 ovarian
  TGI: > 100 µM
OVCAR-4 ovarian
  TGI: > 100 µM
OVCAR-8 ovarian
  TGI: > 100 µM
SK-OV-3 ovarian
  TGI: > 100 µM
SNB-75 CNS
  TGI: > 100 µM
U251 CNS
  TGI: > 100 µM

## C#CCC(Cc1cnc2nc(N)nc(N)c2n1)c1ccc(C(=O)N[C@@H](CCC(=O)O)C(=O)O)cc1 (stereo partly drawn)
786-0 renal
  GI50: < 0.01 µM
  TGI: > 100 µM
ACHN renal
  GI50: < 0.01 µM
  TGI: > 100 µM
IGROV1 ovarian
  GI50: < 0.01 µM
  TGI: > 100 µM
MCF7 breast
  GI50: < 0.01 µM
  TGI: > 100 µM
OVCAR-4 ovarian
  GI50: 0.975 µM
  TGI: > 100 µM
OVCAR-8 ovarian
  GI50: < 0.01 µM
  TGI: > 100 µM
SK-OV-3 ovarian
  GI50: < 0.01 µM
  TGI: > 100 µM
SNB-75 CNS
  GI50: < 0.0502 µM
  TGI: > 100 µM
U251 CNS
  GI50: < 0.01 µM
  TGI: > 100 µM

## CN(C)c1ccc([O][Bi]([Cl])[Cl])cc1
786-0 renal
  GI50: > 100 µM
  TGI: > 100 µM
IGROV1 ovarian
  GI50: > 100 µM
  TGI: > 100 µM
OVCAR-4 ovarian
  GI50: > 100 µM
  TGI: > 100 µM
OVCAR-8 ovarian
  GI50: 53.2 µM
  TGI: > 100 µM
SK-OV-3 ovarian
  GI50: > 100 µM
  TGI: > 100 µM
SNB-75 CNS
  GI50: > 100 µM
  TGI: > 100 µM
U251 CNS
  GI50: > 100 µM
  TGI: > 100 µM

## CCc1c(C#N)c(S[C@@H](C(N)=O)c2ccccc2)nc(N(C)C)c1C#N
786-0 renal
  GI50: 21.1 µM
  TGI: > 100 µM
ACHN renal
  GI50: 3.9 µM
  TGI: > 100 µM
IGROV1 ovarian
  GI50: 7.14 µM
  TGI: > 100 µM
MDA-MB-231 breast
  GI50: 10.8 µM
  TGI: > 100 µM
OVCAR-8 ovarian
  GI50: 3.96 µM
  TGI: > 100 µM
SK-OV-3 ovarian
  GI50: 6.65 µM
  TGI: > 100 µM
SNB-75 CNS
  GI50: 2.11 µM
  TGI: 7.18 µM
U251 CNS
  GI50: 11 µM
  TGI: 42.1 µM

## CCOc1ccc(-c2nonc2NC(=O)c2cccc(C)c2)cc1OCC
786-0 renal
  GI50: 49.7 µM
  TGI: > 100 µM
ACHN renal
  GI50: > 100 µM
  TGI: > 100 µM
IGROV1 ovarian
  GI50: 67 µM
  TGI: > 100 µM
MDA-MB-231 breast
  GI50: 19.5 µM
  TGI: 62.5 µM
OVCAR-4 ovarian
  GI50: > 100 µM
  TGI: > 100 µM
OVCAR-8 ovarian
  GI50: > 100 µM
  TGI: > 100 µM
SK-OV-3 ovarian
  GI50: > 100 µM
  TGI: > 100 µM
SNB-75 CNS
  GI50: 14.5 µM
  TGI: 52.3 µM
U251 CNS
  GI50: 30.5 µM
  TGI: > 100 µM

## O=C(CO)CC(=O)C(=O)Nc1ccccc1
786-0 renal
  TGI: > 100 µM
ACHN renal
  TGI: > 100 µM
IGROV1 ovarian
  TGI: > 100 µM
OVCAR-4 ovarian
  TGI: > 100 µM
OVCAR-8 ovarian
  TGI: > 100 µM
SK-OV-3 ovarian
  TGI: > 100 µM
U251 CNS
  TGI: > 100 µM

## O=[N+]([O-])c1nccn1CC(O)CN1CC1 (stereo not drawn)
786-0 renal
  TGI: > 100 µM
ACHN renal
  TGI: > 100 µM
IGROV1 ovarian
  TGI: > 100 µM
OVCAR-4 ovarian
  TGI: > 100 µM
OVCAR-8 ovarian
  TGI: > 100 µM
SK-OV-3 ovarian
  TGI: 94.7 µM
SNB-75 CNS
  TGI: > 100 µM
U251 CNS
  TGI: > 100 µM
